{"source": "paper PMC8143339", "about": "“PK/PD Modeling of the PDE7 Inhibitor—GRMS-55 in a Mouse Model of Autoimmune Hepatitis” (Pharmaceutics, 2021)", "key": {"[1]": {"tested_on": "PDE7A", "settings": "in vitro assay; read-out: IC50 PDE7A; cited from earlier work"}, "[2]": {"tested_on": "PDE4B", "settings": "in vitro assay; read-out: IC50 PDE4B; cited from earlier work"}, "[3]": {"tested_on": "ConA-induced hepatitis", "assay": "Preliminary pharmacological evaluation in ConA-induced hepatitis", "type": "in vivo, BALB/c mice", "procedure": "ConA was dissolved in sterile saline (2 mg·mL^−1). The studied compounds (GRMS-55, rolipram, and BRL-50481) were dissolved in a mixture of DMSO, PEG 400, and water for injection at a ratio of 25:25:50 (v/v/v). Mice were given an IP injection of the investigated compounds or the corresponding volume of vehicle alone and, thirty minutes later, intravenously (IV) administered with ConA solution. An additional control group received vehicle alone IP instead of the studied compounds followed by IV injection of sterile saline. ConA was given at a dose of 20 mg·kg^−1. Mice were exsanguinated at several time points post-ConA injection. Blood samples were allowed to clot for 0.5 h at room temperature and then centrifuged at 3000× g for 10 min to obtain the serum, which was stored at −20 °C until further analysis.\nThe influence of PDE inhibitors on the levels of inflammatory mediators and transaminases in ConA-treated mice was investigated in two separate experiments. In the preliminary study, the animals were pretreated IP with GRMS-55 at a dose of 50 mg·kg^−1, the PDE4-selective inhibitor rolipram at a dose of 10 mg·kg^−1, or the PDE7-selective inhibitor BRL-50481 at a dose of 50 mg·kg^−1. Doses of the investigated compounds were chosen based on the results of previous studies. Subsequently, mice were given an IV injection of ConA and sacrificed at 8 h following mitogen dosing. The levels of TNF-α, IL-6, and IFN-γ and the activities of ALT and AST in the mouse serum were measured. This preliminary experiment allowed comparing the activity of the studied PDE inhibitors in this AIH model and helped to select the doses of GRMS-55 for a subsequent pharmacodynamic study. In the final pharmacodynamic experiment, GRMS-55 was administered at two dose levels (50 and 100 mg·kg^−1) followed by ConA administration at a dose of 20 mg·kg^−1. Animals were sacrificed at various time points post-ConA dosing (1, 2, 4, 8 and 24 h). The levels of TNF-α, IL-1β, IL-4, IL-6, IL-10, IL-12, IL-17A, and IFN-γ were measured using a multiplex Luminex assay. In addition, the activities of ALT and AST in the mouse serum were assessed. The concentration–time profiles of the selected biomarkers obtained in this experiment combined with the results of pharmacokinetic analysis allowed the development of a semi-mechanistic PK/PD/disease progression model and the investigation of concentration–effect relationships of GRMS-55.\nThe serum samples from the preliminary pharmacological study were analyzed using ELISA tests according to the protocols provided by the manufacturers. The TNF-α concentrations were measured using the Mouse TNF-α Quantikine ELISA Kit (R&D Systems, Minneapolis, MN, USA), while the concentrations of IL-6 and IFN-gamma were quantified by ELISA kits manufactured by Cloud-Clone Corp. (Houston, TX, USA). The absorbance of samples was measured on a POLARstar Omega multi-mode microplate reader (BMG LABTECH, Ortenberg, Germany) set at 450 nm wavelength. TNF-α, IL-1β, IL-6, IL-4, IL-10, IL-12, IL-17A, and IFN-γ serum levels in samples from pharmacodynamic experiment were determined by a premixed Magnetic Luminex Assay (R&D Systems, Inc., Minneapolis, MN, USA) according to the manufacturer’s protocol. Serum AST and ALT activities were quantified on a chemistry analyzer BS-800 (Shenzhen Mindray Bio-medical Electronics Co., Ltd., Shenzhen, China)."}, "[4]": {"tested_on": "TNF-α production", "design": "method as in PMID 31899535", "settings": "rat lipopolysaccharide-induced endotoxemia, PK/PD model; cited from earlier work"}, "[5]": {"tested_on": "paw edema in collagen-induced arthritis", "design": "method as in PMID 31899535", "settings": "rats with collagen-induced arthritis, PK/PD arthritis progression model; cited from earlier work"}, "[6]": {"settings": "8 h after ConA 20 mg/kg IV, IP pretreatment: rolipram 10, BRL-50481 50, GRMS-55 50 mg/kg, vs vehicle control"}}}
{"molecule": "Cc1ccc([N+](=O)[O-])cc1S(=O)(=O)N(C)C", "note": "[BRL-50481]", "values": [{"measurement": "IC50", "setting": "[1]", "result": 2.1, "unit": "µM"}, {"measurement": "IC50", "setting": "[2]", "result": "> 200", "unit": "µM"}, {"measurement": "effect on activities of transaminases", "setting": "[3]; 50 mg/kg IP, 8 h after ConA", "result": "reduced"}, {"measurement": "effect on serum IFN-γ concentration", "setting": "[3]; [6]", "result": "decreased"}, {"measurement": "effect on serum IL-6 concentration", "setting": "[3]; [6]", "result": "no effect"}, {"measurement": "effect on serum TNF-α concentration", "setting": "[3]; [6]", "result": "decreased"}]}
{"molecule": "COc1ccc(C2CNC(=O)C2)cc1OC1CCCC1", "note": "(stereo not shown) [Rolipram]", "values": [{"measurement": "IC50", "setting": "[1]", "result": "> 200", "unit": "µM"}, {"measurement": "IC50, suppression of TNF-α production", "setting": "[4]", "result": 0.36, "unit": "µg/mL"}, {"measurement": "decrease of IFN-γ level compared to control group", "setting": "[3]; 10 mg/kg IP, 8 h after ConA", "result": "approximately 5.0 times"}, {"measurement": "decrease of IL-6 level compared to control group", "setting": "[3]; 10 mg/kg IP, 8 h after ConA", "result": "~3.8", "unit": "times"}, {"measurement": "reduction of ALT activity compared to vehicle-treated control group", "setting": "[3]; 10 mg/kg IP, 8 h after ConA", "result": "approximately 18.2 times"}, {"measurement": "reduction of AST activity compared to vehicle-treated control group", "setting": "[3]; 10 mg/kg IP, 8 h after ConA", "result": "~6.1", "unit": "times"}, {"measurement": "IC50, decrease of paw edema", "setting": "[5]", "result": 0.01, "unit": "µg/mL"}]}
